In the Bradley open melting point set (2014) one finds melting point data, which are given here for 91 compounds.

As usually defined, the melting point is the temperature, or range, at which the solid turns liquid.

Where “and” joins values, the source holds several entries; their conditions need not be identical. Equal entries are not always repeated.

Compound `COc1ccc(C(=O)Nc2ccc(-c3ccc4nn(-c5ccccc5)nc4c3)cc2)cc1` returned a melting point of 106 °C.

For `CC1CNCC(C)O1` (stereo unspecified) [2,6-Dimethylmorpholine], the melting point is -85 °C.

`OB(O)c1ccccc1F` [2-fluorobenzeneboronic acid] registered a melting point of 104 °C.

`O=C1CN=C(c2ccccc2F)c2cc(Cl)ccc2N1CC1CC1` [flutoprazepam]: the melting point came out at 118 °C.

`CC(C)NCC(O)COc1cccc2ccccc12` (stereo unspecified) [propranolol] came in with a melting point of 162 °C.

In the case of `CC(=O)OC1CCC2(C)C3CCC4=C(CCC4(C)C(C)OC(C)=O)C3CCC2(C)C1` (stereo unspecified), the melting point turned out to be 118 °C.

Take `COc1ccc2c(OC)cccc2c1` [1,6-dimethoxynaphthalene]: the melting point is 59 °C.

In turn, `Nc1ccccc1C(=O)O` [anthranilic acid] returned a melting point of 147 °C.

On to `c1ccc2c(c1)Cc1ccccc1O2` [9H-Xanthene], for which the melting point came out at 101 °C.

With `C=CCSCC=C` [diallyl sulfide], the melting point was -83 °C.

Turning to `OCC(O)CO` [glycerol], the melting point is 18 °C.

Take `Nc1cccc(O)c1` [3-aminophenol]: the melting point was 124 °C.

Compound `COc1ccc(OC)c(C(C)=O)c1` [2,5-dimethoxyacetophenone] gave a melting point of 20 °C.

As to `CC1=CC(=O)c2ccccc2C1=O` [Menadione], the melting point worked out at 102 °C.

`Oc1ccc(OCc2ccccc2)cc1` [Agerite] displayed a melting point of 120 °C.

With `O=[N+]([O-])c1cccc(Cl)c1` [1-chloro-3-nitrobenzene], the melting point stood at 45 °C.

Compound `CC(N)C(=O)O` (stereo unspecified) [Alanine] registered a melting point of 264 °C.

Take `C[C@@H]1CCC[C@H](C)C1` [cis-1,3-dimethylcyclohexane]: the melting point is -76 °C.

With `CC(C)(C)c1cc(CC(=O)O)cc(C(C)(C)C)c1O` [3,5-di-tert-butyl-4-hydroxyphenylacetic acid], the melting point amounted to 156 °C.

With `O=C1NC(=O)c2c1cccc2[N+](=O)[O-]` [3-nitrophthalimide], the melting point came to 219 °C.

The compound `O=C(O)[C@@H]1CCCN1` [proline] had a melting point of 221 °C.

As to `NC(=O)c1ccc([N+](=O)[O-])cc1` [4-Nitrobenzamide], the melting point is 202 °C.

For `OCCN(CCO)C(CO)(CO)CO` [2,2-bis(hydroxymethyl)-2,2',2''-nitrilotriethanol], the melting point turned out to be 104 °C.

As for `BrCCBr` [1,2-dibromoethane], the melting point came out at 10 °C.

In turn, `O=C(O)c1c(F)cccc1C(F)(F)F` [2-fluoro-6-(trifluoromethyl)benzoic acid] showed a melting point of 86 °C.

With `CCC1(CC)C(=O)NC(=O)N(C)C1=O` [Metharbital], the melting point was 150 °C.

In the case of `COc1cc(C)c2c(c1)CC/C(=C\c1ccccc1)C2=O`, the melting point was 97 °C.

Consider `CCc1ccccc1O` [2-Ethylphenol], for which the melting point is -28 °C.

`COc1ccccc1` [Anisole]: the melting point was -37 °C.

Take `Cc1cc(C(C)(C)C)c(O)c(C(C)(C)C)c1` [2,6-di-tert-butyl-4-methylphenol]: the melting point came to 71 °C.

`O=C(O)/C=C/c1ccc(F)cc1` [4-fluorocinnamic acid] displayed a melting point of 209 °C.

With `CC(O)CN` (stereo unspecified) [1-Aminopropan-2-ol], the melting point is -2 °C.

For `O=[N+]([O-])c1cccc(I)c1` [1-iodo-3-nitrobenzene], the melting point is 38 °C.

In turn, `Cc1c(N)c(=O)n(-c2ccccc2)n1C` [4-aminoantipyrine] gave a melting point of 108 °C.

The compound `Oc1noc2nc3ccccc3nc12` [isoxazolo[4,5-b]quinoxalin-3(2H)-one] registered a melting point of 323 °C.

For the compound `C1CCNC1` [Pyrrolidine], the melting point was -60 °C.

For the compound `CC(C)/C=N/Nc1ccc([N+](=O)[O-])cc1[N+](=O)[O-]` [(2E)-1-(2,4-Dinitrophenyl)-2-(2-methylpropylidene)hydrazine], the melting point stood at 186 °C.

Consider `CC(=O)c1ccc2c(c1)CCCC2` [6-acetyl-1,2,3,4-tetrahydronaphthalene], for which the melting point was -21 °C.

`Cc1cc(N)ccc1Br` [4-bromo-3-methylaniline]: the melting point was determined as 81 °C.

For `COc1ccc2c3c1O[C@H]1[C@@H](O)C=C[C@H]4[C@@H](C2)N(C)CC[C@@]341` [Codeine], the melting point was found to be 155 °C.

Consider `OC1CCCC1` [cyclopentanol], for which the melting point is -19 °C.

With `CCCCCCCCCCC=O` [undecanal], the melting point was 0 °C and -2 °C.

Turning to `CC1(C)C=C(C(=O)O)C1` [Acid 9 (No name)], the melting point was found to be 70 °C.

Consider `Oc1ccc(F)cc1` [4-Fluorophenol], for which the melting point is 45.5 °C.

With `CC(Oc1ccc(Cl)cc1Cl)C(=O)O` (stereo unspecified) [2-(2,4-dichlorophenoxy)propionic acid], the melting point was 114 °C.

In turn, `O=C(O)c1cc(Br)ccc1Cl` [5-bromo-2-chlorobenzoic_acid] came in with a melting point of 154 °C.

In turn, `CCOC(=O)C12C(c3ccccc3O[P+]1([O-])OCC)C1(C(=O)OCC)C2c2ccccc2O[P+]1([O-])OCC` (stereo unspecified) returned a melting point of 218 °C.

`N#Cc1ccc(C(F)(F)F)cc1[N+](=O)[O-]` [2-nitro-4-(trifluoromethyl)benzonitrile] had a melting point of 42 °C.

With `OC1COC2C(O)COC12` (stereo unspecified) [isosorbide], the melting point worked out at 61 °C.

The compound `O=C\1\C=C/[C@]4(/C(=C/1)CC[C@@H]2[C@@H]4[C@@H](O)C[C@@]3([C@@](O)(C(=O)CO)CC[C@@H]23)C)C` [prednisolone] yielded a melting point of 240 °C.

In the case of `CCc1oc2ccccc2c1C(=O)c1ccc(O)cc1` [benzarone], the melting point came to 124 °C.

`COC(=O)c1ccc(OC)c(F)c1` [methyl 3-fluoro-4-methoxybenzoate] registered a melting point of 71 °C.

Consider `CCO[Si](OCC)(OCC)OCC` [tetraethoxysilane], for which the melting point is -85 °C.

Take `Brc1ccc(I)cc1` [1-bromo-4-iodobenzene]: the melting point worked out at 91 °C.

Consider `Nc1ccc(CO)cc1` [4-aminobenzyl alcohol], for which the melting point was found to be 61 °C.

For `CCCCN(CCCC)CCCN` [N,N-di-n-butyl-1,3-propylenediamine], the melting point is -70 °C.

Regarding `OC(C(F)(F)F)C(F)(F)F` [1,1,1,3,3,3-Hexafluoropropan-2-ol], the melting point was -3 °C.

Take `CC(C)(C)OC(=O)N1CCNCC1` [1-boc-piperazine]: the melting point is 46 °C.

The compound `Cc1ccc(C)c2c1C(=O)NC2=O` [4,7-dimethyl-1H-isoindole-1,3(2H)-dione] registered a melting point of 224 °C.

Take `CCCCCCCCN` [octylamine]: the melting point turned out to be 0 °C.

For the compound `O=C(O)c1ccnc(F)c1` [2-fluoropyridine-4-carboxylic acid], the melting point worked out at 346 °C.

Take `COc1ccc2c(C(=S)N(C)CC(=O)O)cccc2c1C(F)(F)F` [tolrestat]: the melting point was found to be 164 °C.

The compound `Cc1c(F)ccc([N+](=O)[O-])c1C` [3-fluoro-1,2-dimethyl-6-nitrobenzene] showed a melting point of 41 °C.

On to `CNC[C@H](O)c1ccc(O)c(O)c1` [Epinephrine], for which the melting point is 212 °C.

The compound `OCCc1ccc(O)cc1` [2-(4-hydroxyphenyl)ethanol] displayed a melting point of 91 °C.

`CCCCCCCCCCC#CC#CCCCCCCCCC(=O)O` [10,12-tricosadiynoic acid] gave a melting point of 57 °C.

The compound `[O-][n+]1cccc(F)c1` [3-fluoropyridine n-oxide] gave a melting point of 67 °C.

The compound `CCCC(=O)Nc1ccc(OCC(O)CNC(C)C)c(C(C)=O)c1` (stereo unspecified) [acebutolol] displayed a melting point of 119 °C.

With `[O-][n+]1ccc2ccccc2c1` [isoquinoline n-oxide], the melting point was 104 °C.

Consider `O=[N+]([O-])c1cccc(S(=O)(=O)Cl)c1` [3-nitrobenzenesulfonyl chloride], for which the melting point amounted to 61 °C.

`CC1CCC(C(C)C)C(O)C1` (stereo unspecified) [menthol] registered a melting point of 45 °C.

`O=c1cccccc1O` [tropolone] showed a melting point of 53 °C.

Compound `CC12CCC=C1C1CCC3CC(=O)CCC3(C)C1CC2` (stereo unspecified) [androst-14-en-3-one] came in with a melting point of 116 °C.

The compound `c1ccc2cc3c(ccc4ccccc43)cc2c1` [benzanthracene] showed a melting point of 160 °C.

`Nc1ncnc2c1ncn2[C@@H]1O[C@H](CO)[C@@H](O)[C@H]1O` [adenosine] yielded a melting point of 235 °C.

`OB(O)c1cccs1` [thiophene-2-boronic acid] gave a melting point of 130 °C.

As for `OCCCCCCCCCCc1ccccc1` [10-Phenyldecan-1-ol], the melting point was 36 °C.

`O=C1CN2CCOC2(c2ccccc2F)c2cc(Br)ccc2N1` (stereo unspecified) [haloxazolam] showed a melting point of 185 °C.

The compound `NNC(=O)c1ccncc1` [isoniazid] showed a melting point of 171 °C.

As for `CCCCCCCCC(C)=O` [2-decanone], the melting point turned out to be 3 °C.

`NC(=O)c1ccccc1O` [o-hydroxybenzamide] had a melting point of 142 °C.

The compound `O=C(CCCN1CCC2(CC1)C(=O)NCN2c1ccccc1)c1ccc(F)cc1` [spiperone] showed a melting point of 190 °C.

As to `CC1(C(=O)O)CCCCC1` [1-methylcyclohexanecarboxylic acid], the melting point is 38 °C.

As to `CCC(C)CCC(C)O` (stereo unspecified) [5-methyl-2-heptanol], the melting point is -120 °C.

`ClB(Cl)c1ccccc1` [dichlorophenylborane] gave a melting point of 7 °C.

Regarding `ClCc1ccc(Cl)cc1` [4-chlorobenzyl_chloride], the melting point is 30 °C.

The compound `C1CCCCC1` [Cyclohexane] came in with a melting point of 7 °C.

As for `CCCOC(=O)c1ccc(O)cc1` [Propyl 4-hydroxybenzoate], the melting point was determined as 96 °C.

In the case of `CC(CCC(=O)O)C1CCC2C3C(O)CC4CC(O)CCC4(C)C3CC(=O)C12C` (stereo unspecified) [3,7-dihydroxy-12-oxocholan-24-oic acid], the melting point amounted to 221 °C.

On to `CC1=CCC2C3CCC4CC(=O)CCC4(C)C3CCC12C` (stereo unspecified) [17-methylandrost-16-en-3-one], for which the melting point came out at 141 °C.

Consider `CC(C)=CCC/C(C)=C/CC/C(C)=C/CC/C=C(\C)CC/C=C(\C)CCC=C(C)C` [squalene], for which the melting point is -75 °C.
